According to patent US7928098B2, “Therapeutic and/or preventive agents for a sleep disorder” (Kyowa Hakko Kirin Co., Ltd., priority 2005, dated 2011):

SMILES	melting point
CC(=O)c1cccc(C(=O)Nc2nc(-c3ccco3)c(C(=O)c3ccccn3)s2)c1 [Compound 115, 3-Acetyl-N-[4-(2-furyl)-5-(pyridin-2-ylcarbonyl)thiazol-2-yl]benzamide]	168 to 169 °C
CN1CCN(c2ccc(C(=O)c3sc(NC(=O)c4ccncc4)nc3-c3ccco3)cn2)CC1 [Compound 232, N-{4-(2-Furyl)-5-[2-(4-methylpiperazin-1-yl)pyridin-5-ylcarbonyl]thiazol-2-yl}pyridine-4-carboxamide]	195 to 205 °C
O=C(Nc1nc(-c2ccco2)c(C(=O)C2CCOCC2)s1)c1cccc(F)c1 [Compound 372, 3-Fluoro-N-[4-(2-furyl)-5-(tetrahydropyran-4-ylcarbonyl)-thiazol-2-yl]benzamide]	229 to 231 °C
O=C(Nc1nc(-c2ccco2)c(C(=O)C2CCOCC2)s1)c1ccsc1 [Compound 423, N-[4-(2-Furyl)-5-(tetrahydropyran-4-ylcarbonyl)thiazol-2-yl]thiophene-3-carboxamide]	227 to 229 °C
Cc1cc(C(=O)Nc2nc(-c3ccco3)c(C(=O)c3ccccn3)s2)no1 [Compound 151, N-[4-(2-Furyl)-5-(pyridin-2-ylcarbonyl)thiazol-2-yl]-5-methylisoxazole-3-carboxamide]	209 to 213 °C
O=C(Nc1nc(-c2ccco2)c(C(=O)c2ccccn2)s1)OC1CCOCC1 [Compound 161, 4-Tetrahydropyranyl N-[4-(2-furyl)-5-(pyridin-2-ylcarbonyl)thiazol-2-yl]carbamate]	144 to 145 °C
COc1ccc(C(=O)Nc2nc(-c3ccco3)c(C(=O)C3CCOCC3)s2)c(OC)c1 [Compound 389, N-[4-(2-Furyl)-5-(tetrahydropyran-4-ylcarbonyl)thiazol-2-yl]-2,4-dimethoxybenzamide]	219 to 222 °C
O=C(Nc1nc(-c2ccco2)c(C(=O)C2CCOCC2)s1)c1cccc(F)c1F [Compound 394, 2,3-Difluoro-N-[4-(2-furyl)-5-(tetrahydropyran-4-ylcarbonyl)thiazol-2-yl]benzamide]	154 to 160 °C
O=C(Nc1nc(-c2ccco2)c(C(=O)c2ccccc2)s1)c1ccc(=O)n(Cc2ccncc2)c1 [Compound 60, N-[5-Benzoyl-4-(2-furyl)thiazol-2-yl]-2-oxo-1-(pyridin-4-ylmethyl)-1,2-dihydropyridine-5-carboxamide]	270 to 275 °C
Cn1ccc(C(=O)Nc2nc(-c3ccco3)c(C(=O)c3ccccn3)s2)cc1=O [Compound 141, N-[4-(2-Furyl)-5-(pyridin-2-ylcarbonyl)thiazol-2-yl]-1-methyl-2-oxo-1,2-dihydropyridine-4-carboxamide]	280 to 285 °C
COC1CCN(CC(=O)Nc2nc(-c3ccco3)c(C(=O)C3CCOCC3)s2)CC1 [Compound 450, N-[4-(2-Furyl)-5-(tetrahydropyran-4-ylcarbonyl)thiazol-2-yl]-2-(4-methoxypiperidino)acetamide]	109 to 111 °C
O=C(Nc1nc(-c2ccco2)c(C(=O)C2CCOCC2)s1)c1ccoc1 [Compound 421, N-[4-(2-Furyl)-5-(tetrahydropyran-4-ylcarbonyl)thiazol-2-yl]furan-3-carboxamide]	236 to 238 °C
COC[C@H]1CCCN1CC(=O)Nc1nc(-c2ccco2)c(C(=O)C2CCOCC2)s1 [Compound 442, N-[4-(2-Furyl)-5-(tetrahydropyran-4-ylcarbonyl)thiazol-2-yl]-2-[(2R)-2-(methoxymethyl)pyrrolidin-1-yl]acetamide]	103 to 104 °C
O=C(Nc1nc(-c2ccco2)c(C(=O)C2CCOCC2)s1)c1cccnc1 [Compound 406, N-[4-(2-Furyl)-5-(tetrahydropyran-4-ylcarbonyl)thiazol-2-yl]pyridine-3-carboxamide]	209 to 212 °C
C[C@@H]1CN(CC(=O)Nc2nc(-c3ccco3)c(C(=O)c3ccccn3)s2)C[C@H](C)O1 [Compound 173, 2-(cis-2,6-Dimethylmorpholino)-N-[4-(2-furyl)-5-(pyridin-2-ylcarbonyl)thiazol-2-yl]acetamide]	188 to 191 °C
O=C(Nc1nc(-c2ccco2)c(C(=O)C2CCOCC2)s1)c1ccc(C(F)(F)F)nc1 [Compound 410, N-[4-(2-Furyl)-5-(tetrahydropyran-4-ylcarbonyl)thiazol-2-yl]-2-(trifluoromethyl)pyridine-5-carboxamide]	217 to 222 °C
O=C(c1ccccn1)c1sc(NC(=O)C2CCN(Cc3cccnc3)CC2)nc1-c1ccco1 [Compound 105, N-[4-(2-Furyl)-5-(pyridin-2-ylcarbonyl)thiazol-2-yl]-1-(pyridin-3-ylmethyl)piperidine-4-carboxamide]	208 to 209 °C
CN(C)c1ccc(C(=O)c2sc(NC(=O)c3ccncc3)nc2-c2ccco2)cn1 [Compound 230, N-{5-[2-(Dimethylamino)pyridin-5-ylcarbonyl]-4-(2-furyl)thiazol-2-yl}pyridine-4-carboxamide]	260 to 265 °C (dec.)
CC(C)NC(=O)Nc1nc(-c2ccco2)c(C(=O)c2ccccn2)s1 [Compound 166, N-[4-(2-Furyl)-5-(pyridin-2-ylcarbonyl)thiazol-2-yl]-N′-isopropylurea]	182 to 186 °C
COc1cccc(C(=O)Nc2nc(-c3ccco3)c(C(=O)C3CCOCC3)s2)c1OC [Compound 388, N-[4-(2-Furyl)-5-(tetrahydropyran-4-ylcarbonyl)thiazol-2-yl]-2,3-dimethoxybenzamide]	198 to 200 °C

More lines, now with the values ahead:

melting point	SMILES
231 to 234 °C	N#Cc1ccc(C(=O)Nc2nc(-c3ccco3)c(C(=O)C3CCOCC3)s2)cc1 [Compound 379, 4-Cyano-N-[4-(2-furyl)-5-(tetrahydropyran-4-ylcarbonyl)-thiazol-2-yl]benzamide]
206 to 207 °C	O=C(Nc1nc(-c2ccco2)c(C(=O)c2ccccn2)s1)c1ccncc1Cl [Compound 123, 3-Chloro-N-[4-(2-furyl)-5-(pyridin-2-ylcarbonyl)thiazol-2-yl]pyridine-4-carboxamide]
170 to 171 °C	O=C(CN1CCOCC1)Nc1nc(-c2ccco2)c(C(=O)c2ccccn2)s1 [Compound 172, N-[4-(2-Furyl)-5-(pyridin-2-ylcarbonyl)thiazol-2-yl]morpholinoacetamide]
270 to 272 °C (dec.)	Cc1nc(C(=O)c2sc(NC(=O)c3ccncc3)nc2-c2ccco2)sc1C [Compound 258, N-[5-(4,5-Dimethylthiazol-2-ylcarbonyl)-4-(2-furyl)thiazol-2-yl]pyridine-4-carboxamide]
148 to 149 °C	COCC(=O)Nc1nc(-c2ccco2)c(C(=O)C2CCOCC2)s1 [Compound 435, N-[4-(2-Furyl)-5-(tetrahydropyran-4-ylcarbonyl)thiazol-2-yl]-2-methoxyacetamide]
246 to 257 °C (dec.)	COc1ccc(C(=O)c2sc(NC(=O)c3ccncc3)nc2-c2ccco2)cn1 [Compound 226, N-[4-(2-Furyl)-5-(2-methoxypyridin-5-ylcarbonyl)thiazol-2-yl]pyridine-4-carboxamide]
270 to 273 °C	O=C(Nc1nc(-c2ccco2)c(C(=O)c2ccnc(N3CCOCC3)c2)s1)c1ccncc1 [Compound 246, N-[4-(2-Furyl)-5-(2-morpholinopyridin-4-ylcarbonyl)thiazol-2-yl]pyridine-4-carboxamide]
253 to 256 °C	O=C(C=Cc1ccccc1)Nc1nc(-c2ccco2)c(C(=O)C2CCOCC2)s1 [Compound 433, N-[4-(2-Furyl)-5-(tetrahydropyran-4-ylcarbonyl)thiazol-2-yl]-3-phenylacrylamide]
208 to 210 °C	O=C(Nc1nc(-c2ccco2)c(C(=O)c2cccs2)s1)c1ccncc1 [Compound 254, N-[4-(2-Furyl)-5-(thiophen-2-ylcarbonyl)thiazol-2-yl]-pyridine-4-carboxamide]
234 to 237 °C	N#Cc1cccc(C(=O)Nc2nc(-c3ccco3)c(C(=O)c3ccccn3)s2)c1 [Compound 113, 3-Cyano-N-[4-(2-furyl)-5-(pyridin-2-ylcarbonyl)thiazol-2-yl]benzamide]
142 to 144 °C	CCN1CCN(CC(=O)Nc2nc(-c3ccco3)c(C(=O)c3ccccn3)s2)CC1 [Compound 181, 2-(4-Ethylpiperazin-1-yl)-N-[4-(2-furyl)-5-(pyridin-2-ylcarbonyl)thiazol-2-yl]acetamide]
184 to 188 °C	COc1ccc(C(=O)Nc2nc(-c3ccco3)c(C(=O)C3CCOCC3)s2)cc1 [Compound 368, N-[4-(2-Furyl)-5-(tetrahydropyran-4-ylcarbonyl)thiazol-2-yl]-4-methoxybenzamide]
151 to 153 °C	CC1(O)CCN(CC(=O)Nc2nc(-c3ccco3)c(C(=O)C3CCOCC3)s2)CC1 [Compound 451, N-[4-(2-Furyl)-5-(tetrahydropyran-4-ylcarbonyl)thiazol-2-yl]-2-(4-hydroxy-4-methylpiperidino)acetamide]
197 to 199 °C	O=C(Nc1nc(-c2ccco2)c(C(=O)c2ccccn2)s1)c1cccs1 [Compound 149, N-[4-(2-Furyl)-5-(pyridin-2-ylcarbonyl)thiazol-2-yl]-thiophene-2-carboxamide]
183 to 186 °C	Cc1occc1C(=O)Nc1nc(-c2ccco2)c(C(=O)c2ccccn2)s1 [Compound 147, N-[4-(2-Furyl)-5-(pyridin-2-ylcarbonyl)thiazol-2-yl]-2-methylfuran-3-carboxamide]
105 to 109 °C	COC1CCC(C(=O)c2sc(NC(=O)c3ccc(C#N)cc3)nc2-c2ccco2)CC1 (centres unmarked) [Compound 348, 4-Cyano-N-[4-(2-furyl)-5-(4-methoxycyclohexylcarbonyl)-thiazol-2-yl]benzamide]
245 to 248 °C	Cc1cncc(C(=O)Nc2nc(-c3ccco3)c(C(=O)c3ccccn3)s2)c1 [Compound 131, N-[4-(2-Furyl)-5-(pyridin-2-ylcarbonyl)thiazol-2-yl]-5-methylpyridine-3-carboxamide]
278 to 280 °C	COc1cc(OC)cc(C(=O)Nc2nc(-c3ccco3)c(C(=O)C3CCOCC3)s2)c1 [Compound 393, N-[4-(2-Furyl)-5-(tetrahydropyran-4-ylcarbonyl)thiazol-2-yl]-3,5-dimethoxybenzamide]
